Laboratory results as given in ChEMBL document CHEMBL5325510, “Vincamine, from an antioxidant and a cerebral vasodilator to its anticancer potential” (Bioorg Med Chem, 2023).

Columns and labels:
A549 = test: Cytotoxicity against human A549 cells assessed as reduction in cell viability measured after 48 hrs by MTT assay; assay type: functional, cell-based; conditions: A549, 48 h
B16 = test: Cytotoxicity against mouse B16 cells assessed as reduction in cell viability measured after 96 hrs by microplate reader based MTT assay; assay type: functional
HEp-2 = test: Cytotoxicity against human HEp-2 cells assessed as reduction in cell growth; assay type: functional, cell-based
KB = test: Cytotoxicity against human KB cells assessed as cell growth inhibition incubated for 48 hrs by MTT assay; assay type: functional, cell-based

`CC[C@]12CCCN3CCc4c(n(c5ccccc45)[C@@](O)(C(=O)OC)C1)[C@@H]32` [VINCAMINE] was tested, and the IC50 (A549) was 310 µM, the IC50 (B16) was 68.9 µM and the IC50 (HEp-2) was 274 µM. The IC50 (KB) was 232 µM.
